pEC50: −log10 of the molar value.

Usually pEC50 stands for the EC50 on a negative log10 scale, so that one unit is a factor of ten.

The assay concerns the target T1, human FPR2 receptors (Homo sapiens, UniProt P25090).
T1 sequence (P25090 1-351): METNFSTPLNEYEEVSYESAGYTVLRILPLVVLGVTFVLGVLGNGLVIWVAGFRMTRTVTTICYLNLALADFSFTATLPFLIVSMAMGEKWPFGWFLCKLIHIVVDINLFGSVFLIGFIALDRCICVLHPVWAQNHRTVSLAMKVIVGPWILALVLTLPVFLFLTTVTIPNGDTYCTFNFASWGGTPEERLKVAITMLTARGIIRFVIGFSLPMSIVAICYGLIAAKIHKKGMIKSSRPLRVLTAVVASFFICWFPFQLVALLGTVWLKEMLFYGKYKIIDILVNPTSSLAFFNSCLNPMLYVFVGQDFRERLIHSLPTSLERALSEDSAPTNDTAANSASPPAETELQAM
In words: FPR2 cAMP assay in CHO cells overexpressing human FPR2 (HTRF). The format is cell-based. Conditions: hFPR2 assay; potency bins; read-out: hFPR2 agonist activity EC50. An excerpt: N-formyl peptide receptors (FPRs) are a family of chemo attractant receptors that facilitate leukocyte response during inflammation. FPRs belong to the seven-transmembrane G protein-coupled receptor superfamily and are linked to inhibitory G-proteins (Gi). Three family members (FPR1, FPR2 and FPR3) have been identified in humans and are predominantly found in myeloid cells with varied distribution and have also been reported in multiple organs and tissues. After agonist binding, the FPRs activate a multitude of physiological pathways, such as intra cellular signaling transduction, Ca^2+ mobilization and transcription. The family interacts with a diverse set of ligands that includes proteins, polypeptides and fatty acid metabolites which activate both pro-inflammatory and pro-resolution downstream responses. FPR2 and FPR1 Cyclic Adenosine Monophosphate (cAMP) Assays were used to measure the in vitro activity of the compounds disclosed in this application.
FPR2 and FPR1 Cyclic Adenosine Monophosphate (cAMP) Assays. A mixture of forskolin (5 μM final for FPR2 or 10 μM final for FPR1) and IBMX (200 μM final) were added to 384-well Proxiplates (Perkin-Elmer) pre-dotted with test compounds in DMSO (1% final) at final concentrations in the range of 0.020 nM to 100 μM. Chinese Hamster Ovary cells (CHO) overexpressing human FPR1 or human FPR2 receptors were cultured in F-12 (Ham's) medium supplemented with 10% qualified FBS, 250 μg/ml zeocin and 300 μg/ml hygromycin (Life Technologies). Reactions were initiated by adding 2,000 human FPR2 cells per well or 4,000 human FPR1 cells per well in Dulbecco's PBS (with calcium and magnesium) (Life Technologies) supplemented with 0.1% BSA (Perkin-Elmer). The reaction mixtures were incubated for 30 min at room temperature. The level of intracellular cAMP was determined using the HTRF HiRange cAMP assay reagent kit (Cisbio) according to manufacturer's instruction. Solutions of cryptate conjugated anti-cAMP and d2 flurorophore-labelled cAMP were made in a supplied lysis buffer separately. Upon completion of the reaction, the cells were lysed with equal volume of the d2-cAMP solution and anti-cAMP solution. After a 1-h room temperature incubation, time-resolved fluorescence intensity was measured using the Envision (Perkin-Elmer) at 400 nm excitation and dual emission at 590 nm and 665 nm. A calibration curve was constructed with an external cAMP standard at concentrations ranging from 1 μM to 0.1 pM by plotting the fluorescent intensity ratio from 665 nm emission to the intensity from the 590 nm emission against cAMP concentrations. The potency and activity of a compound to inhibit cAMP production was then determined by fitting to a 4-parametric logistic equation from a plot of cAMP level versus compound concentrations.
A general note: Cyclic AMP is a second messenger, typically raised through Gs and lowered through Gi signalling.
In the case of `COc1cc(F)c([C@@H]2CNC(=O)[C@H]2Nc2nnc(-c3ccc(Oc4ccc(F)cn4)cc3)o2)c(F)c1` [Example 65, (3S,4R)-4-(2,6-difluoro-4-methoxyphenyl)-3-[(5-{4-[(5-fluoropyridin-2-yl)oxy]phenyl}-1,3,4-oxadiazol-2-yl)amino]pyrrolidin-2-one], the pEC50 is 6.82 to 7.40.
Regarding `COc1cc(F)c([C@@H]2CNC(=O)[C@H]2Nc2nnc(-c3ccc(Oc4ccc(C#N)cc4)cc3)o2)c(F)c1` [Example 57, 4-[4-(5-{[(3S,4R)-4-(2,6-difluoro-4-methoxyphenyl)-2-oxopyrrolidin-3-yl]amino}-1,3,4-oxadiazol-2-yl)phenoxy]benzonitrile], the pEC50 is 6.82 to 7.40.
In the case of `COc1cc(F)c([C@@H]2CN(C)C(=O)[C@H]2Nc2nnc(-c3ccc(Cl)cc3)o2)c(F)c1` [Example 20, (3S,4R)-3-{[5-(4-chlorophenyl)-1,3,4-oxadiazol-2-yl]amino}-4-(2,6-difluoro-4-methoxyphenyl)-1-methylpyrrolidin-2-one] it was at least 7.40.
`COc1cc(F)c([C@@H]2CNC(=O)[C@H]2Nc2nnc(-c3ccc(Oc4ncccc4F)cc3)o2)c(F)c1` [Example 61, (3S,4R)-4-(2,6-difluoro-4-methoxyphenyl)-3-[(5-{4-[(3-fluoropyridin-2-yl)oxy]phenyl}-1,3,4-oxadiazol-2-yl)amino]pyrrolidin-2-one]: the pEC50 is 6.82 to 7.40.
As for `COc1cc(F)c([C@@H]2CNC(=O)[C@H]2Nc2nnc(-c3ccc(Cl)nc3)o2)c(F)c1` [Example 16, (3S,4R)-3-{[5-(6-chloropyridin-3-yl)-1,3,4-oxadiazol-2-yl]amino}-4-(2,6-difluoro-4-methoxyphenyl)pyrrolidin-2-one], the pEC50 was at least 7.40.
Turning to `COc1cc(F)c([C@@H]2CNC(=O)[C@H]2Nc2nnc(C3CC3c3cccc(Cl)c3)o2)c(F)c1` (stereo partly drawn) [Example 45, (3S,4R)-3-({5-[2-(3-chlorophenyl)cyclopropyl]-1,3,4-oxadiazol-2-yl}amino)-4-(2,6-difluoro-4-methoxyphenyl)pyrrolidin-2-one], the pEC50 is at least 7.40.
With `COc1cc(F)c([C@@H]2CNC(=O)[C@H]2Nc2nnc(C3CC3c3cc(F)cc(F)c3)o2)c(F)c1` (stereo partly drawn) [Example 42, (3S,4R)-4-(2,6-difluoro-4-methoxyphenyl)-3-({5-[2-(3,5-difluorophenyl)cyclopropyl]-1,3,4-oxadiazol-2-yl}amino)pyrrolidin-2-one], the negative logarithm of the EC50 (pEC50) was 6.82 to 7.40.
As for `COc1cc(F)c([C@@H]2CNC(=O)[C@H]2Nc2nnc(-c3ccc(C(F)(F)F)cn3)o2)c(F)c1` [Example 14, (3S,4R)-4-(2,6-difluoro-4-methoxyphenyl)-3-({5-[5-(trifluoromethyl)pyridin-2-yl]-1,3,4-oxadiazol-2-yl}amino)pyrrolidin-2-one], the pEC50 was 6.00 to 6.82.
In the case of `COc1cc(F)c([C@@H]2CNC(=O)[C@H]2Nc2nnc(-c3ccc(Oc4cnccn4)cc3)o2)c(F)c1` [Example 49, (3S,4R)-4-(2,6-difluoro-4-methoxyphenyl)-3-({5-[4-(pyrazin-2-yloxy)phenyl]-1,3,4-oxadiazol-2-yl}amino)pyrrolidin-2-one] it was 6.82 to 7.40.
As to `COc1cc(F)c([C@@H]2CNC(=O)[C@H]2Nc2nnc(-c3ccc(Oc4cc(C#N)ccn4)cc3)o2)c(F)c1` [Example 48, 2-[4-(5-{[(3S,4R)-4-(2,6-difluoro-4-methoxyphenyl)-2-oxopyrrolidin-3-yl]amino}-1,3,4-oxadiazol-2-yl)phenoxy]pyridine-4-carbonitrile], the pEC50 is 6.82 to 7.40.
On to `COc1cc(F)c([C@@H]2CNC(=O)[C@H]2Nc2nnc(-c3ccc(C4CC4)cc3)o2)c(F)c1` [Example 38, (3S,4R)-3-{[5-(4-cyclopropylphenyl)-1,3,4-oxadiazol-2-yl]amino}-4-(2,6-difluoro-4-methoxyphenyl)pyrrolidin-2-one], for which the pEC50 is 6.00 to 6.82.
Take `COc1cc(F)c([C@@H]2CNC(=O)[C@H]2Nc2cc(-c3ccc(OC(F)(F)F)cc3)on2)c(F)c1` [Example 23, (3S,4R)-4-(2,6-difluoro-4-methoxyphenyl)-3-({5-[4-(trifluoromethoxy)phenyl]-1,2-oxazol-3-yl}amino)pyrrolidin-2-one]: the pEC50 was at least 7.40.
For `COc1cc(F)c([C@@H]2CNC(=O)[C@H]2Nc2nnc(-c3ccc(OC(F)F)cc3)o2)c(F)c1` [Example 37, (3S,4R)-4-(2,6-difluoro-4-methoxyphenyl)-3-({5-[4-(difluoromethoxy)phenyl]-1,3,4-oxadiazol-2-yl}amino)pyrrolidin-2-one], the pEC50 was 6.00 to 6.82.
For `COc1cc(F)c([C@@H]2CNC(=O)[C@H]2Nc2nnc(-c3ccc(Oc4ncccc4C#N)cc3)o2)c(F)c1` [Example 66, 2-[4-(5-{[(3S,4R)-4-(2,6-difluoro-4-methoxyphenyl)-2-oxopyrrolidin-3-yl]amino}-1,3,4-oxadiazol-2-yl)phenoxy]pyridine-3-carbonitrile], the negative logarithm of the EC50 (pEC50) is 6.82 to 7.40.
On to `COc1cc(F)c([C@@H]2CNC(=O)[C@H]2Nc2nnc(-c3ccc(Oc4cccc(OC)n4)cc3)o2)c(F)c1` [Example 67, (3S,4R)-4-(2,6-difluoro-4-methoxyphenyl)-3-[(5-{4-[(6-methoxypyridin-2-yl)oxy]phenyl}-1,3,4-oxadiazol-2-yl)amino]pyrrolidin-2-one], for which the pEC50 was 6.00 to 6.82.
Regarding `COc1cc(F)c([C@@H]2CNC(=O)[C@H]2Nc2nnc(-c3ccc(Cl)cc3)o2)c(F)c1` [Example 3, (3S,4R)-3-{[5-(4-chlorophenyl)-1,3,4-oxadiazol-2-yl]amino}-4-(2,6-difluoro-4-methoxyphenyl)pyrrolidin-2-one], the pEC50 is at least 7.40.
Consider `COc1cc(F)c([C@@H]2CNC(=O)[C@H]2Nc2nnc(-c3ccc(C#N)cc3)o2)c(F)c1` [Example 9, 4-(5-{[(3S,4R)-4-(2,6-difluoro-4-methoxyphenyl)-2-oxopyrrolidin-3-yl]amino}-1,3,4-oxadiazol-2-yl)benzonitrile], for which the negative-log EC50 (pEC50) is 6.00 to 6.82.
As for `COc1cc(F)c([C@@H]2CNC(=O)[C@H]2Nc2nnc(-c3ccc(Cl)cc3F)o2)c(F)c1` [Example 15, (3S,4R)-3-{[5-(4-chloro-2-fluorophenyl)-1,3,4-oxadiazol-2-yl]amino}-4-(2,6-difluoro-4-methoxyphenyl)pyrrolidin-2-one], the pEC50 is 6.00 to 6.82.
With `COc1cc(F)c([C@@H]2CNC(=O)[C@H]2Nc2nnc(-c3ccc(OC(F)(F)F)cc3)o2)c(F)c1` [Example 7, (3S,4R)-4-(2,6-difluoro-4-methoxyphenyl)-3-({5-[4-(trifluoromethoxy)phenyl]-1,3,4-oxadiazol-2-yl}amino)pyrrolidin-2-one], the pEC50 is 6.82 to 7.40.
In the case of `CCCCOc1ccc(-c2nnc(N[C@@H]3C(=O)NC[C@H]3c3c(F)cc(OC)cc3F)o2)cc1` [Example 34, (3S,4R)-3-{[5-(4-butoxyphenyl)-1,3,4-oxadiazol-2-yl]amino}-4-(2,6-difluoro-4-methoxyphenyl)pyrrolidin-2-one] it was 6.82 to 7.40.
Take `COc1cc(F)c([C@@H]2CNC(=O)[C@H]2Nc2nnc(-c3ccccc3)o2)c(F)c1` [Example 4, (3S,4R)-4-(2,6-difluoro-4-methoxyphenyl)-3-[(5-phenyl-1,3,4-oxadiazol-2-yl)amino]pyrrolidin-2-one]: the pEC50 was 6.00 to 6.82.
In the case of `COc1cc(F)c([C@@H]2CNC(=O)[C@H]2Nc2nnc(-c3ccc(F)cc3)s2)c(F)c1` [Example 32, (3S,4R)-4-(2,6-difluoro-4-methoxyphenyl)-3-{[5-(4-fluorophenyl)-1,3,4-thiadiazol-2-yl]amino}pyrrolidin-2-one] it was 6.82 to 7.40.
For the molecule `COc1cc(F)c([C@@H]2CNC(=O)[C@H]2Nc2nnc(-c3ccc(Oc4cccc(F)n4)cc3)o2)c(F)c1` [Example 64, (3S,4R)-4-(2,6-difluoro-4-methoxyphenyl)-3-[(5-{4-[(6-fluoropyridin-2-yl)oxy]phenyl}-1,3,4-oxadiazol-2-yl)amino]pyrrolidin-2-one], the pEC50 was at least 7.40.

Values taken from patent US12281108B2, “Pyrrolidinone derivatives as formyl peptide 2 receptor agonists” (BRISTOL-MYERS SQUIBB COMPANY, priority 2018, dated 2025).
